Results as given in patent US20230124862A1, “BISMUTH THIOL COMPOUNDS AND COMPOSITIONS AND METHODS OF TREATING MICROBIAL CO-INFECTIONS” (Microbion Corporation, priority 2020, published 2023).
Converted amounts (≈) assume the structure as drawn. “And” between values parts separate entries of the source, which are not always exact repeats. Identical values can stand only once. Like-named read-outs stand apart in the source and are kept apart here.

How the values were obtained:
Haemophilus influenzae [1] = conditions: H. influenzae MMX 1224 (ATCC 49247), cited from earlier work
Haemophilus influenzae [2] = assay: Broth microdilution MIC, Haemophilus influenzae clinical isolates; format: cell-based
[3] = system: Burkholderia cepacia complex; assay: Checkerboard FIC/FICI assay; format: cell-based, Burkholderia spp.; conditions: for MICB: MIC of Amikacin (Drug B) in combination with BisEDT
B. cepacia = assay: MIC testing of CF isolates; format: cell-based, Burkholderia cepacia; conditions: Burkholderia cepacia; strain BC17; read-out: MIC
E. coli ATCC 25922 = conditions: control strain ATCC 25922; cited from earlier work
Achromobacter spp. = assay: MIC testing of CF isolates; format: cell-based; conditions: strain AX4, A. xylosoxidans; read-out: MIC
S. aureus ATCC 29213 = conditions: control strain ATCC 29213; cited from earlier work
B. cenocepacia = assay: MIC testing of CF isolates; format: cell-based, Burkholderia cenocepacia
S. maltophilia = assay: MIC testing of CF isolates; format: cell-based, Stenotrophomonas maltophilia; conditions: strain SM21
B. multivorans = assay: MIC testing of CF isolates; format: cell-based, Burkholderia multivorans; conditions: Burkholderia multivorans; strain BC5b; read-out: MIC
P. aeruginosa = assay: Checkerboard FIC/FICI assay; format: cell-based, Pseudomonas aeruginosa; conditions: for FICB / MICB: Amikacin in combination with BisEDT
[4] = system: Gram-negative organisms (P. aeruginosa, E. coli, A. baumannii, H. influenzae); assay: Broth microdilution MIC with pulmonary surfactant (Survanta); format: cell-based
[5] = system: Gram-negative organisms (P. aeruginosa, E. coli, A. baumannii, H. influenzae); conditions: P. aeruginosa ATCC 27853; cited from earlier work
[6] = H. influenzae MMX 1224 (ATCC 49247)
[7] = P. aeruginosa 6322, one value per panel row D-G
[8] = P. aeruginosa 6977, by checkerboard
[9] = P. aeruginosa 7745, by checkerboard

Compound: CC[C@H]1OC(=O)[C@H](C)[C@@H](O[C@H]2C[C@@](C)(OC)[C@@H](O)[C@H](C)O2)[C@H](C)[C@@H](O[C@@H]2O[C@H](C)C[C@H](N(C)C)[C@H]2O)[C@](C)(O)C[C@@H](C)CN(C)[C@H](C)[C@@H](O)[C@]1(C)O [AZM]
- CLSI Quality Control Range (MIC) (Haemophilus influenzae [1]; in µg/mL): 1-4
- MIC (Haemophilus influenzae [2]; H. influenzae MMX 0797, BLNAR): 2 µg/mL (≈ 2.67 µM)
- MIC (Haemophilus influenzae [2]; [6]): 2 µg/mL (≈ 2.67 µM)
- MIC (Haemophilus influenzae [2]; H. influenzae MMX 1302): 2 µg/mL (≈ 2.67 µM)
- MIC (Haemophilus influenzae [2]; H. influenzae MMX 1304): 2 µg/mL (≈ 2.67 µM)
- MIC (Haemophilus influenzae [2]; H. influenzae MMX 1740): 4 µg/mL (≈ 5.34 µM)
- MIC (Haemophilus influenzae [2]; H. influenzae MMX 1741): 1 µg/mL (≈ 1.34 µM)
- MIC (Haemophilus influenzae [2]; H. influenzae MMX 2795, BLNAR): 2 µg/mL (≈ 2.67 µM)
- MIC (Haemophilus influenzae [2]; H. influenzae MMX 2796, BLNAR): 2 µg/mL (≈ 2.67 µM)
- MIC (Haemophilus influenzae [2]; H. influenzae MMX 2798, BLNAR): 0.5 µg/mL (≈ 0.668 µM)
- MIC (Haemophilus influenzae [2]; H. influenzae MMX 2799, BLNAR): 0.5 µg/mL (≈ 0.668 µM)
- MIC (Haemophilus influenzae [2]; H. influenzae MMX 5458): 1 µg/mL (≈ 1.34 µM)
- MIC (Haemophilus influenzae [2]; H. influenzae MMX 5461): 2 µg/mL (≈ 2.67 µM)
- MIC (Haemophilus influenzae [2]; H. influenzae MMX 5469): 2 µg/mL (≈ 2.67 µM)
- MIC (Haemophilus influenzae [2]; H. influenzae MMX 5494): 1 µg/mL (≈ 1.34 µM)
- MIC (Haemophilus influenzae [2]; H. influenzae MMX 5495): 0.5 µg/mL (≈ 0.668 µM)
- MIC (Haemophilus influenzae [2]; H. influenzae MMX 5499): 2 µg/mL (≈ 2.67 µM)

Compound: NCC[C@H](O)C(=O)N[C@@H]1C[C@H](N)[C@@H](O[C@H]2O[C@H](CN)[C@@H](O)[C@H](O)[C@H]2O)[C@H](O)[C@H]1O[C@H]1O[C@H](CO)[C@@H](O)[C@H](N)[C@H]1O [Amikacin, reference compound]
- MIC (B. cepacia): > 64 µg/mL
- Expected MIC: goal (acceptable range) (E. coli ATCC 25922): 1 to 2 µg/mL
- MIC (Achromobacter spp.): > 64 µg/mL
- Expected MIC: goal (acceptable range) (S. aureus ATCC 29213): 2 µg/mL
- MIC (B. cenocepacia; Burkholderia cenocepacia, strain BC15, read-out: MIC): > 64 µg/mL
- MIC (B. cenocepacia; strain AU197): >64 µg/mL
- MIC (S. maltophilia): 64 µg/mL (≈ 109 µM)
- MIC (B. multivorans): > 64 µg/mL
- MICB (P. aeruginosa; [7]): 128 µg/mL
- MICB (P. aeruginosa; [9]): 4 µg/mL
- MIC (P. aeruginosa; Pseudomonas aeruginosa, P. aeruginosa 6977, Amikacin alone (checkerboard with BisEDT), read-out: Drug B MIC): 16 µg/mL

Compound: C[C@@H](O)[C@H]1C(=O)N2C(C(=O)O)=C(SCCN=CN)C[C@H]12 [Imspenem]
- MIC ([4]; A. baumanuii CSC 0288, 0 percent Survanta): 16 µg/mL (≈ 53.4 µM)
- MIC ([4]; A. baumanuii CSC 0288, 1 percent Survanta): 16 µg/mL (≈ 53.4 µM)
- MIC ([4]; A. baumanuii CSC 0288, 2.5 percent Survanta): 16 µg/mL (≈ 53.4 µM)
- MIC ([4]; A. baumanuii CSC 0288, 5 percent Survanta): 16 µg/mL (≈ 53.4 µM)
- MIC ([4]; B. cepucia MMX9040, 0 percent Survanta): 8 µg/mL (≈ 26.7 µM)
- MIC ([4]; B. cepucia MMX9040, 1 percent Survanta): 8 µg/mL (≈ 26.7 µM)
- MIC ([4]; B. cepucia MMX9040, 2.5 percent Survanta): 8 µg/mL (≈ 26.7 µM)
- MIC ([4]; B. cepucia MMX9040, 5 percent Survanta): 8 µg/mL (≈ 26.7 µM)
- MIC ([4]; B. cepucia MMX9040, 10 percent Survanta): 8 µg/mL (≈ 26.7 µM)
- MIC ([4]; H. Influenzae ATCC 49247, 0 percent Survanta): 0.5 µg/mL (≈ 1.67 µM)
- MIC ([4]; H. Influenzae ATCC 49247, 1 percent Survanta): 0.5 µg/mL (≈ 1.67 µM)
- MIC ([4]; H. Influenzae ATCC 49247, 2.5 percent Survanta): 0.5 µg/mL (≈ 1.67 µM)
- MIC ([4]; H. Influenzae MMX 2795, 0 percent Survanta): 1 µg/mL (≈ 3.34 µM)
- MIC ([4]; P. aeruginosa ATCC 27853, 0 percent Survanta): 2 µg/mL (≈ 6.68 µM)
- MIC ([4]; P. aeruginosa ATCC 27853, 1 percent Survanta): 2 µg/mL (≈ 6.68 µM)
- MIC ([4]; P. aeruginosa ATCC 27853, 2.5 percent Survanta): 2 µg/mL (≈ 6.68 µM)
- MIC ([4]; P. aeruginosa ATCC 27853, 5 percent Survanta): 2 µg/mL (≈ 6.68 µM)
- MIC ([4]; P. aeruginosa ATCC 27853, 10 percent Survanta): 2 µg/mL (≈ 6.68 µM)
- MIC ([4]; P. aeruginosa CDC 0444, 0 percent Survanta): >16 µg/mL
- MIC ([4]; P. aeruginosa CDC 0444, 1 percent Survanta): >16 µg/mL
- MIC ([4]; P. aeruginosa CDC 0444, 2.5 percent Survanta): >16 µg/mL
- MIC ([4]; P. aeruginosa CDC 0444, 5 percent Survanta): >16 µg/mL
- MIC ([4]; P. aeruginosa CDC 0444, 10 percent Survanta): >16 µg/mL
- CLSI acceptable MIC QC range [5]: 1 to 4 µg/mL

Compound: C[C@H]1COc2c(N3CCN(C)CC3)c(F)cc3c(=O)c(C(=O)O)cn1c23 [LEV]
- CLSI Quality Control Range (MIC) (Haemophilus influenzae [1]): (0.008-0.03)
- MIC (Haemophilus influenzae [2]; H. influenzae MMX 0797, BLNAR): 0.015 µg/mL (≈ 0.0415 µM)
- MIC (Haemophilus influenzae [2]; [6]): 0.015 µg/mL (≈ 0.0415 µM)
- MIC (Haemophilus influenzae [2]; H. influenzae MMX 1302): 0.015 µg/mL (≈ 0.0415 µM)
- MIC (Haemophilus influenzae [2]; H. influenzae MMX 1304): 0.015 µg/mL (≈ 0.0415 µM)
- MIC (Haemophilus influenzae [2]; H. influenzae MMX 1740): 0.015 µg/mL (≈ 0.0415 µM)
- MIC (Haemophilus influenzae [2]; H. influenzae MMX 1741): 0.015 µg/mL (≈ 0.0415 µM)
- MIC (Haemophilus influenzae [2]; H. influenzae MMX 2795, BLNAR): 0.015 µg/mL (≈ 0.0415 µM)
- MIC (Haemophilus influenzae [2]; H. influenzae MMX 2796, BLNAR): 0.015 µg/mL (≈ 0.0415 µM)
- MIC (Haemophilus influenzae [2]; H. influenzae MMX 2798, BLNAR): 0.015 µg/mL (≈ 0.0415 µM)
- MIC (Haemophilus influenzae [2]; H. influenzae MMX 2799, BLNAR): 0.015 µg/mL (≈ 0.0415 µM)
- MIC (Haemophilus influenzae [2]; H. influenzae MMX 5458): 0.015 µg/mL (≈ 0.0415 µM)
- MIC (Haemophilus influenzae [2]; H. influenzae MMX 5461): 0.03 µg/mL (≈ 0.083 µM)
- MIC (Haemophilus influenzae [2]; H. influenzae MMX 5469): 0.015 µg/mL (≈ 0.0415 µM)
- MIC (Haemophilus influenzae [2]; H. influenzae MMX 5494): 0.015 µg/mL (≈ 0.0415 µM)
- MIC (Haemophilus influenzae [2]; H. influenzae MMX 5495): 0.015 µg/mL (≈ 0.0415 µM)
- MIC (Haemophilus influenzae [2]; H. influenzae MMX 5499): 0.015 µg/mL (≈ 0.0415 µM)
